We go through six compounds from patent EP2311818B1, “Combination of a 5-phenylthiazole compound as PI3 kinase inhibitor with an antiinflammatory, bronchodilatory or antihistamine drug” (Novartis AG, priority 2003, dated 2003).

SMILES strings stand for the structures.

For this experiment, the target named is T1, recombinant GST-p110y (Homo sapiens, UniProt P48736).
T1 construct: Residues 38-1102 of human P13Ky are subcloned into the BamH1 and EcoR1 sites; made in house; host or cells: Sf9 (Spodoptera frugiperda) insect cells, baculovirus
T1 sequence (P48736 38-1102): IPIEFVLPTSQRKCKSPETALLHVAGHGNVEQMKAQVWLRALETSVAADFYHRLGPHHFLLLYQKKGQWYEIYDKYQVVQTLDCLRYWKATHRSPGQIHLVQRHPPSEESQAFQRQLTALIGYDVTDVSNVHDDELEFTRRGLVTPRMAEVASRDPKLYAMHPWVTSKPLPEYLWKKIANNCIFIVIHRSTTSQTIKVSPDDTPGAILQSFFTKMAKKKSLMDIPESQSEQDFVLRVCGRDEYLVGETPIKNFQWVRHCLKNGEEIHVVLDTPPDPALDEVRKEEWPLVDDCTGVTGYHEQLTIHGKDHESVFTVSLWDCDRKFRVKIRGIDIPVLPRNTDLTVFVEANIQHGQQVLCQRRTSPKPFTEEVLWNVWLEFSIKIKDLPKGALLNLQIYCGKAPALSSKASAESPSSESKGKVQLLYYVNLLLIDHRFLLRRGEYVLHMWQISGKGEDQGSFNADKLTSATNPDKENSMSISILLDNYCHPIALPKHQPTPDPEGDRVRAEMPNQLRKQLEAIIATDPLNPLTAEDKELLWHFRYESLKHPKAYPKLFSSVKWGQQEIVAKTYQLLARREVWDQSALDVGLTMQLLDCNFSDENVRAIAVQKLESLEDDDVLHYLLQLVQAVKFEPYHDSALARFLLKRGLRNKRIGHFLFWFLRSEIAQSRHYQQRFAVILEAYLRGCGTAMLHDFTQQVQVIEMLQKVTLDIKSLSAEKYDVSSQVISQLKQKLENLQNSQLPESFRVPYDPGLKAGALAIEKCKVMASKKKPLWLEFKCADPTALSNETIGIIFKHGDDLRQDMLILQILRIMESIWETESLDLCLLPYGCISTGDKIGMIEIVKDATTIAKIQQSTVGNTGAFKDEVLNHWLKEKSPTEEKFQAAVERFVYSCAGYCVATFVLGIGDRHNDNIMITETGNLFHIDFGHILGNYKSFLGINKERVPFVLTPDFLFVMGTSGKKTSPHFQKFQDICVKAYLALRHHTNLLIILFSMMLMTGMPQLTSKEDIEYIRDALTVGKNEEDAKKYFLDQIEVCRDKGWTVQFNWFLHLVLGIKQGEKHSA
Description: in vitro PI3Kγ kinase assay (Scintillation Proximity Assay, transfer of terminal phosphate of ATP to phosphatidylinositol). It counts as biochemical. As to conditions: 12.5 µM ATP, 15 µg/ml phosphatidylinositol, room temperature, 60 minutes. As to the method:
To express the recombinant protein, Sf9 (Spodoptera frugiperda 9) insect cells are routinely maintained at densities between 3 X 10^5 and 3 X 10^6 cells/ml in serum containing TNMFH medium (Sigma). Sf9 cells, at a density of 2 X 10^6 are infected with human GST-P13KγΔ34 baculovirus at a multiplicity of infection (m.o.i.) of 1 for 72 hours. The infected cells are harvested by centrifugation at 1400 g for 4 minutes at 4° C and the cell pellets are frozen at -80° C. […] The unbound flow through sample is collected by centrifugation at 1000g for 5 minutes at 4° C using a DENLEY™ centrifuge. The 1 ml GST resin containing bound material is transferred to a 15 ml FALCON™ centrifuge tube for subsequent washing and elution steps. Firstly a series of 3 cycles of washings (mixing by gentle inversion) is performed with 15 ml ice cold wash Buffer A (50 mM Tris-HCl pH 7.5, 1 % Triton X-100, 2 mM DTT) interspersed with centrifugation at 1000g for 5 minutes at 4° C. A final single wash step is performed with 15 ml ice cold wash Buffer B (50mM Tris-HCl pH 7.5, 2 mM DTT) and then centrifuged at 1000g for 5 minutes at 4° C. The washed GST resin is finally eluted with 4 cycles of 1 ml ice cold elution buffer (50 mM Tris-HCl pH 7.5, 10 mM reduced glutathione, 2 mM DTT, 150 mM NaCl, 1 mM NaF, 50% ethylene glycol and protease inhibitors) interspersed with centrifugation at 1000g for 5 minutes at 4° C.. Samples are aliquoted and stored at -20° C.
An in vitro kinase assay was established that measures the transfer of the terminal phosphate of adenosine triphosphate to phosphatidylinositol. The kinase reaction is performed in a white 96 well microtitre plate as a Scintillation Proximity Assay. […] The reaction is started by the addition of 20 µl of enzyme mix (40 mM Tris, 200 mM NaCl, 2 mM EGTA containing recombinant GST-p110y).
Take `CC(=O)Nc1nc(C)c(-c2cc(Br)c(S(N)(=O)=O)c(Br)c2)s1` [Example 8, N-[5-(3.5-Dibromo-4-sulfamoyl-phenyl)-4-methyl-thiazol-2-yl]-acetamide]: the 50% inhibitory concentration (IC50) was found to be 0.009 µM.
The figure for `CC(=O)Nc1nc(C)c(-c2ccc(Cl)c(S(C)(=O)=O)c2)s1` [Example 48, N-[5-(4-Chloro-3-methanesulfonyl-phenyl)-4-methyl-thiazol-2-yl]-acetamide] is 0.018 µM.
With `CC(=O)Nc1nc(C)c(-c2ccc(S(C)(=O)=O)c(-n3ccnc3)c2)s1` [Example 80, N-[5-(3-Imidazol-1-yl-4-methanesulfonyl-phenyl)-4-methyl-thiazol-2-yl]-acetamide] the figure was 0.013 µM.
Take `Cc1nc(NC(N)=O)sc1-c1ccc(Cl)c(S(C)(=O)=O)c1` [Example 138, [5-(4-chloro-3-methanesulfonyl-phenyl)-4-methyl-thiazol-2-yl]-urea]: the half-maximal inhibitory concentration (IC50) was 0.005 µM.
The figure for `CCOC(=O)CCNC(=O)Nc1nc(C)c(-c2ccc(S(C)(=O)=O)c(F)c2)s1` [Example 165, 3-{3-[5-(3-Fluoro-4-methanesulfonyl-phenyl)-4-met4l-thiazol-2-yl]-ureido}-propionic acid ethyl ester] is 0.019 µM.
With `CCc1cnc(CCNC(=O)Nc2nc(C)c(-c3ccc(S(C)(=O)=O)c(F)c3)s2)o1` [Example 178] the figure was 0.04 µM.
